Where two headings read alike, the source gives them in different places.
Assays:
DRD2S = DRD2S (Homo sapiens, UniProt P14416); assay: cAMP DRD2S Agonist; details: for Emax: read-out: Max response
Protocol: (§3) In vitro pharmacological profiling of compounds was done against 78 functional assays for 47 common off-targets (30) by Eurofins DiscoverX Corporation (Fremont, CA, USA) using their SAFETYscan E/IC50 ELECT service (Cat Ref 87-1003DR, Safety47 Panel Dose Response). […] Compounds were tested in a range of 10 concentrations, following a 3-fold serial dilution, starting from 10 μM.
(§4) cAMP Hunter cell lines were expanded from freezer stocks. Prior to testing, cells were seeded in a total volume of 20 μL into white walled 384-well microplates and incubated at 37° C. cAMP modulation was determined using the DiscoverX HitHunter cAMP XS+ assay. For Gs agonist determination, cells were incubated with sample to induce response. For Gi agonist determination, cells were incubated with sample in the presence of EC80 forskolin to induce response. For both conditions, media was aspirated from cells and replaced with 15 μL 2:1 HBSS/10 mM HEPES:cAMP XS+ Ab reagent. Intermediate dilution of sample stocks was performed to generate 4× sample in assay buffer (containing 4×EC80 forskolin in the case of antagonist determination). 5 μL of 4× sample was added to cells and incubated at 37° C. or room temperature (RT) for 30 or 60 min. Final assay vehicle concentration was 1%. For antagonist determination, cells were pre-incubated with sample followed by agonist challenge at the EC80 concentration. Media was aspirated from cells and replaced with 10 μL 1:1 HBSS/HEPES:cAMP XS+ Ab reagent. 5 μL of 4× compound was added to the cells and incubated at 37° C. or RT for 30 min. 5 μL of 4×EC80 agonist was added to the cells and incubated at 37° C. or RT for 30 or 60 min. For Gi coupled GPCRs, EC80 forskolin was included. […] Microplates were read following signal generation with a PerkinElmer Envision™ instrument for chemiluminescent signal detection. Compound activity was analyzed using CBIS data analysis suite (ChemInnovation, CA).

OPRD1 = OPRD1 (Homo sapiens, UniProt P41143); assay: cAMP OPRD1 Agonist; details: for Emax: read-out: Max response
Protocol: as §3, §4

HRH1 [1] = biological target: T1, HRH1 (Homo sapiens, UniProt P35367); assay: Calcium Flux HRH1 Agonist; format: cell-based; details: for Emax: read-out: Max response
Protocol: (§1) (≤0.2% DMSO concentration). Assays were performed in 1× dye loading buffer consisting of 1× Dye (DiscoverX, Calcium No Wash^PLUS kit, Catalog No. 90-0091), 1× Additive A and 2.5 mM Probenecid in HBSS/20 mM HEPES. Probenecid was prepared fresh. Prior to testing, media was aspirated from cells and replaced with 25 μL dye loading buffer. Cells were incubated for 45 min at 37° C. and then 20 min at RT. For agonist determination, 25 μL of 2× compound in HBSS/20 mM HEPES was added using a FLIPR Tetra (MDS). […] 25 μL of 2× sample was added and cells were incubated for 30 min at RT in the dark to equilibrate plate temperature. After incubation, antagonist determination was initiated by addition of 25 μL of 1× compound with 3×EC80 agonist using FLIPR. For both agonist and antagonist formats, activity was measure on a FLIPR Tetra (MDS). Calcium mobilization was monitored for 2 min with a 5 sec baseline read.
(§2) FLIPR read—Area under the curve, was calculated for the entire 2 min read.

ADRA2A = biological target: T2, ADRA2A (Homo sapiens, UniProt P08913); assay: cAMP ADRA2A Agonist; details: for Emax: read-out: Max response
T2 sequence (P08913 1-465): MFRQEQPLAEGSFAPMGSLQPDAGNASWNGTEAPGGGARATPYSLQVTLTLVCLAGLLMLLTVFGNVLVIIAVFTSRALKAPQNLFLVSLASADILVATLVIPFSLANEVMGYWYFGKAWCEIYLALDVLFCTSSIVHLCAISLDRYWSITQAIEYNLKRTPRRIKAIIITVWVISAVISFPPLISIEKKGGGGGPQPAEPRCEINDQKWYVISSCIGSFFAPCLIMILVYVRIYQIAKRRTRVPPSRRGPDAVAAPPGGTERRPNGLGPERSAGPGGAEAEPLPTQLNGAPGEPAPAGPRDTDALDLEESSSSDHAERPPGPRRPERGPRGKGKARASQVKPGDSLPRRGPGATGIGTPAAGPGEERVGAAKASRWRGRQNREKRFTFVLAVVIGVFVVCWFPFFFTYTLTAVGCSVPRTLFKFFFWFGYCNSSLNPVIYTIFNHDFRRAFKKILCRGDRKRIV
Protocol: (§5) In vitro pharmacological profiling of compounds was done against 78 functional assays for 47 common off-targets (30) by Eurofins DiscoverX Corporation (Fremont, CA, USA) using their SAFETYscan E/IC50 ELECT service (Cat Ref 87-1003DR, Safety47 Panel Dose Response). […] Compounds were tested in a range of 10 concentrations, following a 3-fold serial dilution, starting from 10 μM. The assays were performed utilizing the PathHunter enzyme fragment complementation (EFC) technology, FLIPR®-based cellular screening assays, and KINOMEscan kinase binding assays.
as §4

CHRM1 [2] = biological target: T3, CHRM1 (Homo sapiens, UniProt P11229); assay: Calcium Flux CHRM1 Agonist; details: for Emax: read-out: Max response
T3 sequence (P11229 1-460): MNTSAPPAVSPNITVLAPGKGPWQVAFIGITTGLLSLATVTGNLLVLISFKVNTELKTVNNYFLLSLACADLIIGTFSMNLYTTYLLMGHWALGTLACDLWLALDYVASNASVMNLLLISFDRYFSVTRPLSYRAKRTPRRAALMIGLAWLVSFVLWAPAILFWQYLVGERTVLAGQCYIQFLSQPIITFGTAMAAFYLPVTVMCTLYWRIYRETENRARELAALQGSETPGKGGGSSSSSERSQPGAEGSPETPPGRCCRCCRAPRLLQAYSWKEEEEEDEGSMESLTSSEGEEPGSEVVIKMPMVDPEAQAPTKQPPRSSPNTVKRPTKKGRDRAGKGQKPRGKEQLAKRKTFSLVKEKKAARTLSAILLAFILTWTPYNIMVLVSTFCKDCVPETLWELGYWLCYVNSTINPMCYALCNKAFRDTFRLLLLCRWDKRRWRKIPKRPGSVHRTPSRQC
Protocol: as §5
(§6) Prior to testing, cells (10,000 cells/well) were expanded from freezer stocks and seeded into a total volume of 50 μL into black walled, clear-bottom, Poly-D-lysine coated 384-well microplates and incubated at 37° C. […] Assays were performed in 1× dye loading buffer consisting of 1× Dye (DiscoverX, Calcium No Wash^PLUS kit, Catalog No. 90-0091), 1× Additive A and 2.5 mM Probenecid in HBSS/20 mM HEPES. Probenecid was prepared fresh. Prior to testing, media was aspirated from cells and replaced with 25 μL dye loading buffer. Cells were incubated for 45 min at 37° C. and then 20 min at RT. For agonist determination, 25 μL of 2× compound in HBSS/20 mM HEPES was added using a FLIPR Tetra (MDS). For antagonist determination, cells were pre-incubated with sample followed by agonist challenge at the EC80 concentration. 25 μL of 2× sample was added and cells were incubated for 30 min at RT in the dark to equilibrate plate temperature. After incubation, antagonist determination was initiated by addition of 25 μL of 1× compound with 3×EC80 agonist using FLIPR. For both agonist and antagonist formats, activity was measure on a FLIPR Tetra (MDS). Calcium mobilization was monitored for 2 min with a 5 sec baseline read.
(§7) FLIPR read—Area under the curve, was calculated for the entire 2 min read. Compound activity was analysed using CBIS data analysis suite (ChemInnovation, CA).

CHRM1 [3] = biological target: T3, CHRM1; assay: Calcium Flux CHRM1 Antagonist; details: for Emax: read-out: Max response
Protocol: as §5, §6, §7

ADRB2 = ADRB2 (Homo sapiens, UniProt P07550); assay: cAMP ADRB2 Agonist; format: cell-based; details: for Emax: read-out: Max response
Sequence of ADRB2 (P07550 whole entry): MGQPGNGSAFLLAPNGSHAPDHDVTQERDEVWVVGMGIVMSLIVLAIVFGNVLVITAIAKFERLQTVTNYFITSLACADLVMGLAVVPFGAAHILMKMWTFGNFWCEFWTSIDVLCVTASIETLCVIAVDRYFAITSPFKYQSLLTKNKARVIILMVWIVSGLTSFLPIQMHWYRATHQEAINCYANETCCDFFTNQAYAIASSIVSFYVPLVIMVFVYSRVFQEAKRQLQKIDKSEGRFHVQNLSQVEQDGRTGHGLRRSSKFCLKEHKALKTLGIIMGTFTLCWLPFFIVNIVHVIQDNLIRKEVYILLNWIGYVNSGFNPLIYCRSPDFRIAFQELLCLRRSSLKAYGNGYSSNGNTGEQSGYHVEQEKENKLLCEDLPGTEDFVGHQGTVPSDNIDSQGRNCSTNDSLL
Protocol: cAMP Hunter cell lines were expanded from freezer stocks. […] For Gi agonist determination, cells were incubated with sample in the presence of EC80 forskolin to induce response. For both conditions, media was aspirated from cells and replaced with 15 μL 2:1 HBSS/10 mM HEPES:cAMP XS+ Ab reagent. […] 5 μL of 4× sample was added to cells and incubated at 37° C. or room temperature (RT) for 30 or 60 min. Final assay vehicle concentration was 1%. […] Media was aspirated from cells and replaced with 10 μL 1:1 HBSS/HEPES:cAMP XS+ Ab reagent. […] For Gi coupled GPCRs, EC80 forskolin was included. […] Compound activity was analyzed using CBIS data analysis suite (ChemInnovation, CA).

HTR2A = HTR2A (Homo sapiens, UniProt P28223); assay: Calcium Flux HTR2A Agonist; details: for Emax: read-out: Max response
Sequence of HTR2A (P28223 whole entry): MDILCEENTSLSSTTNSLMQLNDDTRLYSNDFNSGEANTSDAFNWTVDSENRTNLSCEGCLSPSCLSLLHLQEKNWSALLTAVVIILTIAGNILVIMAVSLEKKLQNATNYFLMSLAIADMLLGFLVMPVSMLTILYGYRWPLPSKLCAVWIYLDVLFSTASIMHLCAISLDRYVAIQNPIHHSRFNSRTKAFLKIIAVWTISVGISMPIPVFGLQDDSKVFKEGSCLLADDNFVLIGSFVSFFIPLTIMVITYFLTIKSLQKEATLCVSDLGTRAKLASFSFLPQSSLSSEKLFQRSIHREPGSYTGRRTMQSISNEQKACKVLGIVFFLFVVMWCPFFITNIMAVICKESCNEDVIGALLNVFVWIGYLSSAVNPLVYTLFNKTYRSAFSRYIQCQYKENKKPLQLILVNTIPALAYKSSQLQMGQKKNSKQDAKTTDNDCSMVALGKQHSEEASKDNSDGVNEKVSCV
Protocol: as §5, §6, §7

HTR1A = biological target: T4, HTR1A (Homo sapiens, UniProt P08908); assay: cAMP HTR1A Agonist; details: for Emax: read-out: Max response
T4 sequence (P08908 1-422): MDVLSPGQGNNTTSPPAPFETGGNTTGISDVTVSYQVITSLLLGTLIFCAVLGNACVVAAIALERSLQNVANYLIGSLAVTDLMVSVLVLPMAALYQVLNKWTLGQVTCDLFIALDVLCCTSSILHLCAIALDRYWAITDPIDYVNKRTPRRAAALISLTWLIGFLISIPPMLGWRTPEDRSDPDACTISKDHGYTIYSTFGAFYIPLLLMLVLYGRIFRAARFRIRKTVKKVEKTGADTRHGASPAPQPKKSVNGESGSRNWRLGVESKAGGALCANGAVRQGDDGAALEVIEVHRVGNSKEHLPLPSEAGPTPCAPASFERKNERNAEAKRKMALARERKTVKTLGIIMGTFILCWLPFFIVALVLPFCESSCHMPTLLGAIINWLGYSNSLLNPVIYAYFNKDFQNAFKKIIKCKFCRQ
Protocol: as §3, §4

in vivo = details: male, NMRI, mouse, ip, 300 mg/kg
Protocol: After the treatment period, blood samples were drawn from the tail veins, collected in Greiner MiniCollect K2EDTA tubes, and centrifuged twice for 5 min at 15,000 g to obtain plasma samples. Three volumes of acetonitrile were added to one volume of plasma to precipitate out the proteins. The samples were vortexed for 20 s and placed on ice. Immediately after, they were centrifuged at 5,000 g for 10 min and again at 10,000 g for 2 min. The resulting supernatants were transferred to Eppendorf tubes and centrifuged for 2 min at 10,000 g. Finally, the supernatants were collected for analysis by LC-MS/MS to determine the targeted compound concentration. Percentage recovery was determined as follows: known concentrations of the compound were spiked into the blank plasma and acetonitrile was added (3:1 ratio) to precipitate out the proteins. Samples were vortexed for 20 s and placed on ice. The resulting supernatants were isolated via centrifugation as described above. The targeted compounds were identified using LC-MS/MS to detect their characteristic ions. Plasma concentrations at each point were plotted as a function of time.
Brain samples were collected at the same time points as described for blood samples. Male NMRI mice were overdosed with dolethal via i.p. administration. Mice were perfused with 0.9% saline and brains were collected in Eppendorf tubes. Brains were weighed, whereafter 400 μL of acetonitrile was added to the samples. […] Homogenized samples were centrifuged at 5,000 g for 10 min and again at 10,000 g for 2 min. The resulting supernatants were transferred to Eppendorf tubes and centrifuged for 2 min at 10,000 g. Finally, the supernatants were collected for analysis by LC-MS/MS to determine the targeted compound concentration in the brain tissue.
The compound concentrations in mouse plasma and brain were determined by LC-MS/MS.

HRH1 [4] = biological target: T1, HRH1; assay: Calcium Flux HRH1 Antagonist; format: cell-based; details: for Emax: read-out: Max response
Protocol: as §1, §2

Sequence of OPRD1 (P41143 whole entry): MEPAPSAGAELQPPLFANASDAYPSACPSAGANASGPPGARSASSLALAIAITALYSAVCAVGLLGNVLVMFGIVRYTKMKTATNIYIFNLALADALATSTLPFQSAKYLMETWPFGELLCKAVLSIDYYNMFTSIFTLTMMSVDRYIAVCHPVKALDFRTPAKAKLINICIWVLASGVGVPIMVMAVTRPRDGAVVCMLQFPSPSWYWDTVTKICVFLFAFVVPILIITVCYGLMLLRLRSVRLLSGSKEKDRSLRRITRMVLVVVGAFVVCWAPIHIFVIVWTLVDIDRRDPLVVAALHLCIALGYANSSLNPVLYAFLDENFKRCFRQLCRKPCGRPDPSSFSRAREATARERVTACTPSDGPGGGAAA
Sequence of DRD2S (P14416 1-414 isoform P14416-2): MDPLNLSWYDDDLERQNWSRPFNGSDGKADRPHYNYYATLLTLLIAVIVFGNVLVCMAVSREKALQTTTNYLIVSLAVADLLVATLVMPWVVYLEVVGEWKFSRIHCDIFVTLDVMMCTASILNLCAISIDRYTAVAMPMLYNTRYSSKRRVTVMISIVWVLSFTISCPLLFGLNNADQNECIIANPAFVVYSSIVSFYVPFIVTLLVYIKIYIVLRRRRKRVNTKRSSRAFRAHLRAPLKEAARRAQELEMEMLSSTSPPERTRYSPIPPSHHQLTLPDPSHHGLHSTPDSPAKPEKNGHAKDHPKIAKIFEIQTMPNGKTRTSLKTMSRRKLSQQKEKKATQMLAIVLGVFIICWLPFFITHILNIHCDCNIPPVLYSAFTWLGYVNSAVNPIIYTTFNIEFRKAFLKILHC
T1 sequence (P35367 whole entry): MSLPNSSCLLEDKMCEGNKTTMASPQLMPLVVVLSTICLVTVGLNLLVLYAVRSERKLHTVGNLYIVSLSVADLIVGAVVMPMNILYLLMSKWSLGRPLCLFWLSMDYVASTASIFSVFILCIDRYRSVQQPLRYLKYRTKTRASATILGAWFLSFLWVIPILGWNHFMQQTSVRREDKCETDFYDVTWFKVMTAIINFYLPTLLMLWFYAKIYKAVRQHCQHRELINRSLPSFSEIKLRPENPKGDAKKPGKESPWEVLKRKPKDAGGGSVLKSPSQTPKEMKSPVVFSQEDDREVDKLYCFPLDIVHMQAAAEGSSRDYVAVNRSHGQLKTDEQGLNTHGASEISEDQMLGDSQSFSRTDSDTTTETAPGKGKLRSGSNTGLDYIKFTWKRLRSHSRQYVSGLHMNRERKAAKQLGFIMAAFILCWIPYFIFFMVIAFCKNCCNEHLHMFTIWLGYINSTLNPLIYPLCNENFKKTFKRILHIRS

| SMILES | EC50 (DRD2S) | Emax (DRD2S) | EC50 (OPRD1) | Emax (OPRD1) | EC50 (ADRA2A) | Emax (ADRA2A) | EC50 (CHRM1 [2]) | Emax (CHRM1 [2]) | IC50 (CHRM1 [3]) | Emax (CHRM1 [3]) | EC50 (HTR2A) | Emax (HTR2A) | EC50 (HTR1A) | Emax (HTR1A) | Cmax (in vivo; brain) | Cmax (in vivo; plasma) | also measured |
| --- | --- | --- | --- | --- | --- | --- | --- | --- | --- | --- | --- | --- | --- | --- | --- | --- | --- |
| CC(C)(C)c1ccc(C#CC(O)c2ccccc2)cc1 (racemic) [Compound 3.3, rac-3-(4-(tert-butyl)phenyl)-1-phenylprop-2-yn-1-ol] | > 10 µM | 0% | > 10 µM | 3.6% | > 10 µM | 0% | > 10 µM | 1.8% | > 10 µM | 0% | > 10 µM | 0% | > 10 µM | 0% | 96000 ng/g | 62 µM | EC50 (HRH1 [1]): > 10 µM; Emax (HRH1 [1]): 0%; EC50 (ADRB2): > 10 µM; Emax (ADRB2): 1.9%; IC50 (HRH1 [4]): > 10 µM; Emax (HRH1 [4]): 0% |
| Clc1cccc(C#Cc2n[nH]c3ncccc23)c1 [Compound 10.1, 3-((3-chlorophenyl)ethynyl)-1H-pyrazolo[3,4-b]pyridine] | > 10 µM | 15% | > 10 µM | 12.1% | > 10 µM | 20.7% | > 10 µM | 1.8% | > 10 µM | 5.5% | > 10 µM | 0% | > 10 µM | 9.1% | 31000 ng/g | 27 µM | Emax (HRH1 [1]; Calcium Flux HRH1 Agonist): 0%; EC50 (HRH1 [1]; Calcium Flux HRH1 Agonist, read-out: RC50, result type EC50): > 10 µM; Emax (ADRB2; cAMP ADRB2 Agonist): 0.3%; EC50 (ADRB2; cAMP ADRB2 Agonist, read-out: RC50, result type EC50): > 10 µM; Emax (HRH1 [4]; Calcium Flux HRH1 Antagonist): 1%; IC50 (HRH1 [4]; Calcium Flux HRH1 Antagonist, read-out: RC50, result type IC50): > 10 µM |

From US20250186408A1, “TREATMENT OF PHARMACORESISTANT EPILEPSY” (Katholieke Universiteit Leuven, priority 2021, published 2025)
